How the values were obtained:
Type in all cases: cell-based
HL-60 (TB) = assay: NCI screen, growth of human tumor cells: Leukemia HL-60 (TB); details: for % Growth: HL-60(TB)
Protocol: (§1) In the NCI screening process, each compound was tested and described by a minimum of 60 data points. The test data include, but are not limited to the type of cancer, the molar concentration used in the screen, and the percent growth of the cancer. In some cases, NMR and elemental analysis were used for structural assignment.

RPMI-8226 = assay: NCI screen, growth of human tumor cells: Leukemia RPMI-8226; details: for percent of growth of human tumor cells: RPMI-8226 (Leukemia), 10^−4 molar
Procedure, shortened: (§2)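 Percent-growth read-out from the NCI cancer cell screen; data annotated by cancer type and molar concentration, ≥60 points per compound.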

COLO205 = assay: NCI screen, growth of human tumor cells: Colon Cancer COLO205
Procedure, shortened: as §2

HCT-15 = assay: NCI screen, growth of human tumor cells: Colon Cancer HCT-15; details: for percent of growth of human tumor cells: HCT-15 (Colon Cancer), 10^−4 molar
Procedure, shortened: as §2

HT29 = assay: NCI screen, growth of human tumor cells: Colon Cancer HT29; details: for percent of growth of human tumor cells: HT29 (Colon Cancer), 10^−4 molar
Procedure, shortened: as §2

SF-295 = assay: NCI screen, growth of human tumor cells: CNS Cancer SF-295
Procedure, shortened: as §2

SNB-19 = assay: NCI screen, growth of human tumor cells: CNS Cancer SNB-19
Procedure, shortened: as §2

M14 = assay: NCI screen, growth of human tumor cells: Melanoma M14; details: M14, 10^−4 molar
Procedure, shortened: as §2

SK-MEL-28 = assay: NCI screen, growth of human tumor cells: Melanoma SK-MEL-28
Procedure, shortened: as §2

OVCAR-8 = assay: NCI screen, growth of human tumor cells: Ovarian Cancer OVCAR-8; details: for percent of growth of human tumor cells: OVCAR-8 (Ovarian Cancer), 10^−4 molar; for % Growth: OVCAR-8, 10^−4 molar
Procedure, shortened: as §2

ACHN = assay: NCI screen, growth of human tumor cells: Renal Cancer ACHN; details: ACHN
Procedure, shortened: as §2

TK-10 = assay: NCI screen, growth of human tumor cells: Renal Cancer TK-10; details: for % Growth: TK-10, 10^−4 molar
Procedure, shortened: as §2

SN12C = assay: NCI screen, growth of human tumor cells: Renal Cancer SN12C; details: SN12C, 10^−4 molar
Procedure, shortened: as §2

BT-549 = assay: NCI screen, growth of human tumor cells: Breast Cancer BT-549
Procedure, shortened: as §2

MDA-MB-231/ATCC = assay: NCI screen, growth of human tumor cells: Breast Cancer MDA-MB-231/ATCC; details: for percent of growth of human tumor cells: MDA-MB-231/ATCC (Breast Cancer); for % Growth: MDA-MB-231 (ATCC)
Procedure, shortened: as §2

human cancer cells = assay: NCI screen summary over the cancers tested (negative growth of human cancer cells); details: for Percentage of cancers showing negative growth cancers tested: cancers with negative growth / cancers tested
Protocol: as §1
The derivatives in the tables are grouped using the same category as in the tables 1-6.

RL = assay: NCI screen, growth of human tumor cells: Lymphoma RL
KD488 = assay: NCI screen, growth of human tumor cells: Lymphoma KD488
AS283 = assay: NCI screen, growth of human tumor cells: Lymphoma AS283
SU-DAL-7 = assay: NCI screen, growth of human tumor cells: Lymphoma SU-DAL-7
PA682 = assay: NCI screen, growth of human tumor cells: Lymphoma PA682
SNB-75 = assay: NCI screen, growth of human tumor cells: CNS Cancer SNB-75
Procedure, shortened: as §2

SK-OV-3 = assay: NCI screen, growth of human tumor cells: Ovarian Cancer SK-OV-3; details: SK-OV-3, 10^−4 molar
Procedure, shortened: as §2

HS 578T = assay: NCI screen, growth of human tumor cells: Breast Cancer HS 578T; details: HS 578T (Breast Cancer), 10^−4 molar
Procedure, shortened: as §2

MDA-N = assay: NCI screen, growth of human tumor cells: Breast Cancer MDA-N; details: 10^−4 molar
Procedure, shortened: as §2

SW620 = assay: NCI screen, growth of human tumor cells: Colon Cancer SW620
Procedure, shortened: as §2

RXF-393 = assay: NCI screen, growth of human tumor cells: Renal Cancer RXF-393
Procedure, shortened: as §2

T-47D = assay: NCI screen, growth of human tumor cells: Breast Cancer T-47D; details: 10^−4 molar; for percent of growth of human tumor cells: T-47D (Breast Cancer)
Protocol: as §1

SMILES: Cc1ccc2ccccc2c1CC1S(=O)(=O)OCCOS1(=O)=O [NSC 679043, ethylene 2-methyl-1-naphyl-1,1-ethanedisulfonate]
- % Growth (HL-60 (TB); 10^−4 molar): −49%
- % Growth (HL-60 (TB); 10^−5 molar): −33%
- % Growth (RPMI-8226; RPMI-8226, 10^−4 molar): −54%
- % Growth (RPMI-8226; RPMI-8226, 10^−5 molar): 56%
- % Growth (COLO205; COLO205, 10^−4 molar): −98%
- % Growth (COLO205; COLO205, 10^−5 molar): −27%
- percent of growth of human tumor cells (HCT-15): −49%
- % Growth (HT29; HT-29, 10^−4 molar): −95%
- % Growth (HT29; HT-29, 10^−5 molar): 57%
- % Growth (SF-295; SF-295, 10^−4 molar): −88%
- % Growth (SNB-19; SNB-19, 10^−4 molar): −95%
- % Growth (M14): −78%
- % Growth (SK-MEL-28; SK-MEL-28, 10^−4 molar): −78%
- percent of growth of human tumor cells (OVCAR-8): −53%
- % Growth (ACHN; 10^−4 molar): −90%
- % Growth (TK-10): −93%
- % Growth (SN12C): −85%
- % Growth (BT-549; BT-549, 10^−4 molar): −82%
- % Growth (BT-549; BT-549, 10^−5 molar): 57%
- percent of growth of human tumor cells (MDA-MB-231/ATCC; 10^−4 molar): −12%
- percentage of cancers that had −100% growth (human cancer cells; 10^−4 M conc.): 8%
- Percentage of cancers showing negative growth cancers tested (human cancer cells; 10^−4 M conc.): 100%
- Percentage of cancers showing negative growth cancers tested (human cancer cells; 10^−5 M conc.): 9%
- % Growth (RL; 10^−4 molar): −45%
- % Growth (RL; 10^−5 molar): 33%
- % Growth (KD488; KD488, 10^−4 molar): −45%
- % Growth (KD488; KD488, 10^−5 molar): 30%
- % Growth (KD488; KD488, 10^−6 molar): 62%
- % Growth (KD488; KD488, 10^−7 molar): 54%
- % Growth (AS283; AS283, 10^−4 molar): −34%
- % Growth (AS283; AS283, 10^−5 molar): 37%
- % Growth (SU-DAL-7; SU-DAL-7, 10^−4 molar): −44%
- % Growth (SU-DAL-7; SU-DAL-7, 10^−5 molar): 14%
- % Growth (PA682; PA682, 10^−4 molar): −33%
- % Growth (PA682; PA682, 10^−5 molar): 45%

SMILES: CC1=C(CC2S(=O)(=O)OCCOS2(=O)=O)C(=O)c2ccccc2C1=O [NSC 693874, ethylene (3-methyl-1,4-naphtho-2-quinoyl)-1,1-ethanedisulfonate]
- % Growth (RPMI-8226; RPMI-8226, 10^−4 molar): −55%
- % Growth (SF-295; SF-295, 10^−4 molar): −100%
- % Growth (SF-295; SF-295, 10^−5 molar): 32%
- % Growth (SNB-19; SNB-19, 10^−4 molar): −92%
- % Growth (SNB-75; SNB-75, 10^−4 molar): −96%
- % Growth (SNB-75; SNB-75, 10^−5 molar): −21%
- % Growth (SNB-75; SNB-75, 10^−6 molar): 6%
- % Growth (SNB-75; SNB-75, 10^−7 molar): 27%
- % Growth (SNB-75; SNB-75, 10^−8 molar): 6%
- % Growth (SK-MEL-28; SK-MEL-28, 10^−4 molar): −83%
- % Growth (SK-OV-3): −75%
- % Growth (OVCAR-8): −71%
- % Growth (ACHN; 10^−4 molar): −100%
- % Growth (ACHN; 10^−5 molar): 50%
- % Growth (TK-10): −100%
- % Growth (SN12C): −100%
- % Growth (BT-549; BT-549, 10^−4 molar): −100%
- percent of growth of human tumor cells (HS 578T): −21%
- percent of growth of human tumor cells (MDA-MB-231/ATCC; 10^−4 molar): −22%
- percent of growth of human tumor cells (MDA-N): −59%
- Percentage of cancers showing negative growth cancers tested (human cancer cells; 10^−4 M conc.): 98%
- Percentage of cancers showing negative growth cancers tested (human cancer cells; 10^−5 M conc.): 12%

SMILES: CC(=O)C1(CC2=C(C)C(=O)c3ccccc3C2=O)S(=O)(=O)OCCOS1(=O)=O [NSC 701690]
- percent of growth of human tumor cells (RPMI-8226): −18%
- % Growth (COLO205; COLO205, 10^−4 molar): −100%
- % Growth (COLO205; COLO205, 10^−5 molar): 60%
- % Growth (COLO205; COLO205, 10^−6 molar): 58%
- % Growth (HCT-15; HCT-15, 10^−4 molar): −100%
- percent of growth of human tumor cells (HT29): −25%
- % Growth (SW620; SW620, 10^−4 molar): −100%
- % Growth (SW620; SW620, 10^−5 molar): 23%
- % Growth (SW620; SW620, 10^−6 molar): 54%
- % Growth (SF-295; SF-295, 10^−4 molar): −100%
- % Growth (SNB-19; SNB-19, 10^−4 molar): −47%
- % Growth (SNB-19; SNB-19, 10^−5 molar): 53%
- % Growth (SNB-75; SNB-75, 10^−4 molar): −100%
- % Growth (SNB-75; SNB-75, 10^−5 molar): 45%
- % Growth (M14): −100%
- % Growth (SK-MEL-28; SK-MEL-28, 10^−4 molar): −100%
- % Growth (SK-MEL-28; SK-MEL-28, 10^−5 molar): 58%
- % Growth (OVCAR-8): −100%
- % Growth (ACHN; 10^−4 molar): −77%
- % Growth (RXF-393; RXF-393, 10^−4 molar): −69%
- percent of growth of human tumor cells (TK-10; TK-10 (Renal Cancer), 10^−4 molar): −8%
- % Growth (SN12C): −100%
- % Growth (BT-549; BT-549, 10^−4 molar): −100%
- % Growth (MDA-MB-231/ATCC; 10^−4 molar): −41%
- % Growth (MDA-MB-231/ATCC; 10^−5 molar): 39%
- % Growth (MDA-MB-231/ATCC; 10^−6 molar): 56%
- % Growth (MDA-MB-231/ATCC; 10^−7 molar): 58%
- % Growth (MDA-MB-231/ATCC; 10^−8 molar): 45%
- percent of growth of human tumor cells (T-47D): −54%
- % Growth (T-47D; T-47D): −54%
- Percentage of cancers showing negative growth cancers tested (human cancer cells; 10^−4 M conc.): 100%
- Percentage of cancers showing negative growth cancers tested (human cancer cells; 10^−5 M conc.): 5%
- Percentage of cancers showing negative growth cancers tested (human cancer cells; 10^−6 M conc.): 14%

SMILES: CC1(C)OCC(COC(=O)C(=O)C2(Cc3ccc4c(c3)C(=O)c3ccccc3C4=O)S(=O)(=O)OCCOS2(=O)=O)O1 (stereo not drawn) [NSC 737276]
- percent of growth of human tumor cells (HL-60 (TB); HL-60 (TB) (Leukemia), 10^−4 molar): −3%
- percent of growth of human tumor cells (RPMI-8226): −35%
- % Growth (COLO205; COLO205, 10^−4 molar): −96%
- percent of growth of human tumor cells (HCT-15): −12%
- percent of growth of human tumor cells (HT29): −25%
- % Growth (SW620; SW620, 10^−4 molar): −74%
- percent of growth of human tumor cells (SF-295; SF-295 (CNS Cancer), 10^−4 molar): −12%
- percent of growth of human tumor cells (SNB-19; SNB-19 (CNS Cancer), 10^−4 molar): −59%
- % Growth (SNB-75; SNB-75, 10^−4 molar): −87%
- percent of growth of human tumor cells (SK-MEL-28; SK-MEL-28 (Melanoma), 10^−4 molar): −52%
- % Growth (SK-OV-3): −67%
- percent of growth of human tumor cells (OVCAR-8): 5%
- % Growth (ACHN; 10^−4 molar): −82%
- percent of growth of human tumor cells (RXF-393; RXF-393 (Renal Cancer), 10^−4 molar): −54%
- % Growth (TK-10): −73%
- % Growth (SN12C): −64%
- percent of growth of human tumor cells (BT-549; BT-549 (Breast Cancer), 10^−4 molar): −49%
- percent of growth of human tumor cells (HS 578T): 17%
- percent of growth of human tumor cells (MDA-MB-231/ATCC; 10^−4 molar): −9%
- percent of growth of human tumor cells (T-47D): −39%
- Percentage of cancers showing negative growth cancers tested (human cancer cells; 10^−4 M conc.): 10^−4 M conc. = 49/55 = 89%
